Key:
[1] = target: PD-1/PD-L1 binding (recombinant human PD-L1-Fc fusion protein and His-PD-1 protein) (Homo sapiens (Human), UniProt Q9NZQ7); experiment: In vitro inhibitory activity against PD-1/PD-L1 binding (HTRF); conditions: read-out: IC50 for inhibiting PD-1/PD-L1 binding in vitro
Description: Homogeneous time resolved fluorescence method (HTRF): This method uses the recombinant human PD-L1 protein fused with hFc tag and the recombinant human PD-1 protein fused with His tag, which are interacting ligands and receptors. When the anti-hFc antibody containing chelated Eu tag and the anti-His antibody containing XL665 fluorescein tag are used to bind with the above two corresponding tags respectively and are excited by 320 nm laser, energy can be transferred from Eu element to XL665 fluorescein due to ligand receptor binding, and the XL665 fluorescein is excited to emit light with a wavelength of 665 nm. When an inhibitor for inhibiting interaction of PD-L1 and PD-1 is added, the binding of the ligand and the receptor is destroyed, causing a long distance between Eu and XL665. As a result, the energy cannot be transferred, and the XL665 fluorescein will not be excited.
Experimental Materials and Devices The recombinant human PD-1 protein with His tag (His-PD-1 protein, Cat #: 10377-H08H-50) and the recombinant human PD-L1-Fc fusion protein (PD-L1-Fc fusion protein, Cat #: 10084-H02H-100) were purchased from Sino Biological Inc., anti-hFc-Eu^3+ antibody and anti-His-XL665 antibody were purchased from Cisbio, and other related reagents such as a diluent buffer (diluent buffer 5 (Cat #: 62DL5DDC) and a detection buffer (PPI-European detection buffer, Cat #: 61DB9RDF) were purchased from Cisbio. Fluorescence detector Tecan (Spark 10M) was purchased from Tecan Company in Switzerland.
The experiment process was carried out according to the flow required in the operating manual of the test reagent. The process was as follows: • (1) Experiment preparation: A test compound was diluted to different concentration gradients with the dilution buffer (the highest final concentration in a 20 μL final reaction system was 10 μM). The His-PD-1 protein was diluted to 800 nM (the final concentration in the 20 final reaction system was 100 nM). The PD-L1-Fc fusion protein was diluted to 16 nM (the final concentration was 2 nM). […] All tests were conducted by use of multiple holes. • (4) The fluorescence detector Tecan (Spark 10M) was used to detect the fluorescence signal of each hole. The excitation wavelength was 320 nm, and the emission wavelengths for detection were 620 nm and 665 nm, respectively. The strength of PD-1/PD-L1 binding refers to a fluorescence signal ratio Em665/Em620. • (5) Calculation formula of binding inhibition rate of test compound: Inhibition rate (%)=[1−(fluorescence signal ratio of detected hole−fluorescence signal ratio of 100% inhibition negative control)]/(fluorescence signal ratio of 0% inhibition positive control−fluorescence signal ratio of 100% inhibition negative control)×100%. The 50% inhibition concentration (IC50) was calculated after the PD-1/PD-L1 binding inhibition rates of the test compound with different concentration gradients were calculated respectively.

[2] = test system: PD-1/PD-L1 mediated inhibitory signal to T cell activation (CHO-PD-L1-CD3L cells and Jurkat-PD-1-NFAT cells); experiment: Blocking of PD-1/PD-L1 mediated inhibitory signal to T cell activation at cell level (NFAT luciferase reporter, co-culture); type: cell-based; conditions: Homo sapiens, CHO-PD-L1-CD3L / Jurkat-PD-1-NFAT co-culture, 6 h
Description: In order to test the effect of interaction between PD-1 and PD-L1 on T cell activation signal in immune response, CHO-PD-L1-CD3L cells stably expressing human PD-L1 molecule and anti-CD3 single-chain antibody (ScFv) and Jurkat-PD-1-NFAT cells stably expressing human PD-1 molecule and NFAT reporter gene were constructed. When two kinds of cells are incubated together, anti-CD3 ScFv on the CHO cell surface and membrane CD3 molecule of Jurkat cell combine to transmit an activation signal into Jurkat cell. However, due to the binding of PD-L1 on the CHO cell surface and PD-1 molecule on the Jurkat cell surface at the same time, a signal for inhibiting activation is transmitted inward, so that luciferase reporter gene cannot be expressed. When an immunocheckpoint antibody or small-molecule inhibitor is added, the binding of PD-1 and PD-L1 is blocked, the NFAT pathway activated by CD3 ScFv antibody and CD3 cross-linking mediated T cell activation signal is no longer affected by the inhibitory signal, and the downstream luciferase reporter gene starts to be expressed. Chemiluminescence signals proportional to reporter gene activation can be detected by adding a catalytic substrate.
CHO-PD-L1-CD3L cells expressing human PD-L1 molecule and anti-CD3 single-chain antibody (ScFv) and Jurkat-PD-1-NFAT cells stably expressing human PD-1 molecule and NFAT reporter gene were all independently constructed and presented by Dr. Chen Bo (KeyMed Biosciences (Chengdu) Co., Ltd. Puromycin (Cat # 540411) and Hygromycin B (Cat # V900372) for stable culture of transfected cells were purchased from Sigma, PMA (Cat # P1585) was purchased from Sigma, and the anti human PD-L1 antibody (Cat # GMP-A066) was purchased from Novoprotein Company. The Luciferase substrate solution (Cat # E6485) and the luciferase-specific cell lysate 5×(Cat # E1531) were purchased from Promega company. The fluorescence detector Tecan (Spark 10M) was purchased from Tecan Company in Switzerland.
Main Process of Experiment • (1) On the day before the experiment, 100 μL of CHO-PD-L1-CD3L cells (about 4×10^4 cells/well) were inoculated at 37° C. overnight in a 96-well cell culture plate, and the culture medium was DMEM/F12 containing 10% FBS, 8 μg/mL Puromycin and 200 μg/mL Hygromycin B. • (2) The test compound was diluted with 0.1% PBST to obtain solutions with different concentration gradients, and then added into 96-well plates and incubated for 30 min in advance. The RPMI 1640 complete medium containing 10% FBS, 8 μg/mL Puromycin and 200 μg/mL Hygromycin B was used to adjust the Jurkat-PD-1-NFAT cell count to 2×10^5 cells/mL, and 100 ng/mL PMA (10 mg/mL storage solution prepared with DMSO) was added to amplify the T cell activation signal. 100 μL of the Jurkat-PD-1-NFAT cells were added into each well of the 96-well plates for co-culture. • (3) During the test reaction, control groups were set, including the solvent control without adding the test compound and the positive control with the addition of the […] in the experimental system. All tests were conducted by use of multiple holes. • (4) Incubation was continued at 37° C. for 6 h, 40 μL of 5×cell lysate was added directly, the solution was mixed well and placed at room temperature for 10 min to completely lyse cells. 50 μL of lysed cell solution was transferred to a fluorescence detection plate, 30 μL of luciferase substrate solution was then added, and the chemiluminescence detection program was immediately selected on the fluorescence detector for determination. • (5) Calculation formula of the inhibition rate of the test compound against T cell activation signal at the cell level: The inhibition rate against T cell activation signal (%)=(original chemiluminescence value of the test hole−solvent control)/(the highest original chemiluminescence value determined in the compound test hole−solvent control)×100%. […]

Chain of PD-1/PD-L1 binding (recombinant human PD-L1-Fc fusion protein and His-PD-1 protein) (Q9NZQ7 19-239): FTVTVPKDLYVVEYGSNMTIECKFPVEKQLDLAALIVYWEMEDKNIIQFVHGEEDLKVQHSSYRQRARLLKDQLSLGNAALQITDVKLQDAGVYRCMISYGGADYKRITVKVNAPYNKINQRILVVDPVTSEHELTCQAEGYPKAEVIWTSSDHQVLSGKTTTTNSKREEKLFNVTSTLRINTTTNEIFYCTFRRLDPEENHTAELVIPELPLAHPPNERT

Row | IC50 [1] | Structure (SMILES) | EC50 [2]
1 | 3.7 nM | COCC12CCC(CN3CCc4c(nc(C(=O)Nc5cccc(-c6cccc(NC(=O)c7nc8c(n7C)CCN(CCC79CCC(C(=O)O)(CC7)C9)C8)c6Cl)c5Cl)n4C)C3)(CC1)C2 [Compound I-8, 4-(2-(2-((2,2′-dichloro-3′-(5-((4-(methoxymethyl)bicyclo[2.2.1]heptan-1-yl)methyl)-1-methyl-4,5,6,7-tetrahydro-1H-imidazo[4,5-c]pyridine-2-carboxamido)-[1, 1′-biphenyl]-3-yl)carbamoyl)-1-methyl-1,4,6,7-tetrahydro-5H-imidazo[4,5-c]pyridin-5-yl)ethyl)bicyclo[2.2.1]heptane-1-carboxylic acid] | 30.3 nM
2 | 1.32 nM | COCC12CCC(CCCN3CCc4c(nc(C(=O)Nc5cccc(-c6cccc(NC(=O)c7nc8c(n7C)CCN(CCC79CCC(C(=O)O)(CC7)C9)C8)c6Cl)c5C)n4C)C3)(CC1)C2 [Compound I-2, 4-(2-(2-((2-chloro-3′-(5-(3-(4-(methoxymethyl)bicyclo[2.2.1]heptan-1-yl)propyl)-1-methyl-4,5,6,7-tetrahydro-1H-imidazo[4,5-c]pyridine-2-carboxamido)-2′-methyl-[1,1′-biphenyl]-3-yl)carbamoyl)-1-methyl-1,4,6,7-tetrahydro-5H-imidazo[4,5-c]pyridin-5-yl)ethyl)bicyclo[2.2.1]heptane-1-carboxylic acid] | 18.1 nM
3 | 1.47 nM | COCC12CCC(CCCN3CCc4c(nc(C(=O)Nc5cccc(-c6cccc(NC(=O)c7nc8c(n7C)CCN(CCC79CCC(C(=O)O)(CC7)C9)C8)c6C)c5Cl)n4C)C3)(CC1)C2 [Compound I-1, 4-(2-(2-((2′-chloro-3′-(5-(3-(4-(methoxymethyl)bicyclo[2. 2.1]heptan-1-yl)propyl)-1-methyl-4,5,6,7-tetrahydro-1H-imidazo[4,5-c]pyridine-2-carboxamido) -2-methyl-[1,1′-biphenyl]-3-yl)carbamoyl)-1-methyl-1,4,6,7-tetrahydro-5H-imidazo[4,5-c]pyridin-5-yl)ethyl)bicyclo[2.2.1]heptane-1-carboxylic acid] | 33.9 nM
4 | 2.35 nM | COCC12CCC(CCN3CCc4c(nc(C(=O)Nc5cccc(-c6cccc(NC(=O)c7nc8c(n7C)CCN(CCC79CCC(C(=O)O)(CC7)C9)C8)c6Cl)c5C)n4C)C3)(CC1)C2 [Compound I-5, 4-(2-(2-((2-chloro-3′-(5-(2-(4-(methoxymethyl)bicyclo[2.2.1]heptan-1-yl)ethyl)-1-methyl-4,5,6,7-tetrahydro-1H-imidazo[4,5-c]pyridine-2-carboxamido)-2′-methyl-[1,1′-biphenyl]-3-yl)carbamoyl)-1-methyl-1,4,6,7-tetrahydro-5H-imidazo [4,5-c]pyridin-5-yl)ethyl)bicyclo[2.2.1]heptane-1-carboxylic acid] | 26.7 nM
5 | 1.89 nM | COCC12CCC(CCN3CCc4c(nc(C(=O)Nc5cccc(-c6cccc(NC(=O)c7nc8c(n7C)CCN(CCC79CCC(C(=O)O)(CC7)C9)C8)c6C)c5Cl)n4C)C3)(CC1)C2 [Compound I-4, 4-(2-(2-((2′-chloro-3′-(5-(2-(4-(methoxymethyl)bicyclo[2. 2.1]heptan-1-yl)ethyl)-1-methyl-4,5,6,7-tetrahydro-1H-imidazo[4,5-c]pyridine-2-carboxamido)-2-methyl-[1 ,1′-biphenyl]-3-yl)carbamoyl)-1-methyl-1,4,6,7-tetrahydro-5H-imidazo[4,5-c]pyridin-5-yl)ethyl)bicyclo[2.2.1]heptane-1-carboxylic acid] | 28.3 nM

From patent US20230365590A1, “BIPHENYL COMPOUND AS IMMUNOMODULATOR, PREPARATION METHOD THEREFOR AND APPLICATION THEREOF” (SHENZHEN CHIPSCREEN BIOSCIENCES CO., LTD., priority 2020, published 2023)
